Results from US20250230193A1, “CYCLIC COMPOUND HAVING SELECTIVE KRAS INHIBITORY EFFECT ON HRAS AND NRAS” (CHUGAI SEIYAKU KABUSHIKI KAISHA, priority 2022, published 2025).
Where a SMILES comes first, the peptide text is derived from it. Bridges are numbered along the chain shown (N, C = ends). [ ]: non-standard residue; d: D form. The star is where a group is joined. hPhe(3,5-F2-4-CF3) = N[C@@H](CCc1cc(F)c(C(F)(F)F)c(F)c1)C(=O)O; NPrPhe(4-CF3) = CCCN[C@@H](Cc1ccc(C(F)(F)F)cc1)C(=O)O; NMeGly(cPent) = CN[C@H](C(=O)O)C1CCCC1; NMeD = CN[C@@H](CC(=O)O)C(=O)O; NMeL = CN[C@@H](CC(C)C)C(=O)O; Morpholide = C1CN(*)CCO1; Ac5c = NC1(C(=O)O)CCCC1; Sar = CNCC(=O)O

What was measured:
[1] = molecular target: GDP-bound NRAS wild-type protein (Homo sapiens, UniProt P01111); test: Binding to NRAS by surface plasmon resonance (SPR), Single Cycle Kinetics; details: for NRAS/KRAS (ratio of KD value with respect to NRAS to KD value with respect to KRAS): GDP-bound NRAS wild-type vs GDP-bound KRAS wild-type
[2] = molecular target: GDP-bound HRAS wild-type protein (Homo sapiens, UniProt P01112); test: Binding to HRAS by surface plasmon resonance (SPR), Single Cycle Kinetics; details: for HRAS/KRAS (ratio of KD value with respect to HRAS to KD value with respect to KRAS): GDP-bound HRAS wild-type vs GDP-bound KRAS wild-type
Chain of GDP-bound HRAS wild-type protein (P01112 whole entry): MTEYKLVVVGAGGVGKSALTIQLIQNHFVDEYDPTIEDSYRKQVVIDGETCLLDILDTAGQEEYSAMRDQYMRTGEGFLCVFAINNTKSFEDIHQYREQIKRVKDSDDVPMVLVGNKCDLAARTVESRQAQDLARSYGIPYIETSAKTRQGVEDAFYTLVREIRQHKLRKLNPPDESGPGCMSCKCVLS

Chain of GDP-bound NRAS wild-type protein (P01111 whole entry): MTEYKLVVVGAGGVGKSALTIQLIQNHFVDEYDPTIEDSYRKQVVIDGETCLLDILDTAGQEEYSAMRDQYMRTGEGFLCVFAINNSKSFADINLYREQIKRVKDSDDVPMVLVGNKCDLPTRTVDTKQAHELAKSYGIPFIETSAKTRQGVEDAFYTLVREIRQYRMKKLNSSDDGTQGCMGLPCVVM

`CCO[C@@H]1C[C@H]2C(=O)NC3(CC(C)(C)C3)C(=O)N(C)[C@@H](C3CCCC3)C(=O)N(C)[C@H](C(=O)N3CCCC3)CC(=O)N(C)[C@H]3CCCC/C=C/c4ccc(cc4)C[C@@H](C(=O)N(C)CC(=O)N[C@@H](CCc4ccc(Cl)c(Cl)c4)C(=O)N2C1)N1CC/C=C\C[C@@H](C1=O)N(C)C(=O)CN(C)C(=O)[C@H]([C@@H](C)CC)NC3=O` [PP2593] was tested, and the “NRAS/KRAS (ratio of KD value with respect to GDP-bound NRAS wild-type protein to KD value with respect to KRAS)” value ([1]; class symbols) was “A (a compound having 10 or more and less than 20 is denoted as A)” and the “HRAS/KRAS (ratio of KD value with respect to GDP-bound HRAS wild-type protein to KD value with respect to KRAS)” value ([2]; class symbols) was “A (a compound having 10 or more and less than 20 is denoted as A)”.

`CC[C@H](C)[C@@H]1NC(=O)[C@H](CC(C)C)N(C)C(=O)C[C@@H](C(=O)N2CCOCC2)N(CC)C(=O)[C@H](C2CCCC2)N(C)C(=O)C2(CCCC2)NC(=O)[C@@H]2CCCN2C(=O)[C@H](CCc2ccc(C(F)(F)F)c(Cl)c2)NC(=O)CN(C)C(=O)[C@H](Cc2ccc(F)cc2)N2CCCCC[C@@H](C2=O)N(C)C(=O)CN(C)C1=O` [PP0970] was tested, and the “NRAS/KRAS (ratio of KD value with respect to NRAS to KD value with respect to KRAS)” value ([1]; KD ratio, SPR) was “B (a compound having 3 or more and less than 10 is denoted as B)” and the “HRAS/KRAS (ratio of KD value with respect to HRAS to KD value with respect to KRAS)” value ([2]; KD ratio, SPR) was “B (a compound having 3 or more and less than 10 is denoted as B)”.

With `CCO[C@@H]1C[C@H]2C(=O)NC3(CCC3)C(=O)N(C)[C@@H](C3CCCC3)C(=O)N(CCC3CCCC3)[C@H](C(=O)N(C)C)CC(=O)N(C)[C@@H](CC)C(=O)N[C@@H]([C@@H](C)CC)C(=O)N(C)CC(=O)N(C)[C@H]3CCCCN(C3=O)[C@@H](Cc3ccc(C(F)(F)F)cc3)C(=O)N(C)CC(=O)N[C@@H](CCc3cc(F)c(C(F)(F)F)c(F)c3)C(=O)N2C1` [PP0646] the “NRAS/KRAS (ratio of KD value with respect to GDP-bound NRAS wild-type protein to KD value with respect to KRAS)” value ([1]; SPR) was “C (A compound having a KD ratio of 0.1 or more and less than 3 is denoted as C)” and the “HRAS/KRAS (ratio of KD value with respect to GDP-bound HRAS wild-type protein to KD value with respect to KRAS)” value ([2]; SPR) was “B (a compound having 3 or more and less than 10 is denoted as B)”.

With `CCCN1C(=O)CN(C)C(=O)CN(C)C(=O)[C@H]([C@@H](C)CC)NC(=O)[C@H](CC(C)C)N(C)C(=O)C[C@@H](C(=O)N2CCOCC2)N(C)C(=O)[C@H](C2CCCC2)N(C)C(=O)C2(CCCC2)NC(=O)[C@@H]2CCCN2C(=O)[C@H](CCc2cc(F)c(C(F)(F)F)c(F)c2)NC(=O)CN(C)C(=O)[C@@H]1Cc1ccc(C(F)(F)F)cc1` [PP0753] ([NMeL]I[Sar][Sar][NPrPhe(4-CF3)][Sar][hPhe(3,5-F2-4-CF3)]P[Ac5c][NMeGly(cPent)][NMeD]-Morpholide; lactam N-11) the “NRAS/KRAS (ratio of KD value with respect to GDP-bound NRAS wild-type protein to KD value with respect to KRAS)” value ([1]; SPR) was “B (a compound having 3 or more and less than 10 is denoted as B)” and the “HRAS/KRAS (ratio of KD value with respect to GDP-bound HRAS wild-type protein to KD value with respect to KRAS)” value ([2]; SPR) was “C (A compound having a KD ratio of 0.1 or more and less than 3 is denoted as C)”.

With `CCO[C@@H]1C[C@H]2C(=O)NC3(CC(C)(C)C3)C(=O)N(C)[C@@H](CC(C)(C)C)C(=O)N(C)[C@H](C(=O)N(C)C)CC(=O)N(C)[C@@H](COC)C(=O)N[C@@H]([C@@H](C)CC)C(=O)N(C3CC3)CC(=O)N(C)[C@H]3C/C=C\CCN(C3=O)[C@@H](Cc3ccc(C(F)(F)F)cc3)C(=O)N(C)CC(=O)N[C@@H](CCc3cc(F)c(C(F)(F)F)c(F)c3)C(=O)N2C1` [PP2744] the “NRAS/KRAS (ratio of KD value with respect to GDP-bound NRAS wild-type protein to KD value with respect to KRAS)” value ([1]; class symbols) was “A (a compound having 10 or more and less than 20 is denoted as A)” and the “HRAS/KRAS (ratio of KD value with respect to GDP-bound HRAS wild-type protein to KD value with respect to KRAS)” value ([2]; class symbols) was “A (a compound having 10 or more and less than 20 is denoted as A)”.

For `CCO[C@@H]1C[C@H]2C(=O)NC3(CCC3)C(=O)N(C)[C@@H](C3CCCC3)C(=O)N(C)[C@H](C(=O)N(C)CCOC)CC(=O)N(C)[C@@H](CC3CC3)C(=O)N[C@@H]([C@@H](C)CC)C(=O)N(C)CC(=O)N(C)[C@H]3C/C=C\CCN(C3=O)[C@@H](Cc3ccc(C(F)(F)F)cc3)C(=O)N(C)CC(=O)N[C@@H](CCc3cc(F)c(C(F)(F)F)c(F)c3)C(=O)N2C1` [PP1318], the “NRAS/KRAS (ratio of KD value for GDP-bound NRAS wild-type protein to KD value for KRAS)” value ([1]; SPR, KD ratio class) was “A (a compound having 10 or more and less than 20 is denoted as A)” and the “HRAS/KRAS (ratio of KD value for GDP-bound HRAS wild-type protein to KD value for KRAS)” value ([2]; SPR, KD ratio class) was “A (a compound having 10 or more and less than 20 is denoted as A)”.

`CCO[C@@H]1C[C@H]2C(=O)NC3(CC(C)(C)C3)C(=O)N(C)[C@@H](C3CCCC3)C(=O)N(C)[C@H](C(=O)N(C)CC)CC(=O)N(C)[C@@H](COC)C(=O)N[C@@H]([C@@H](C)CC)C(=O)N(C)CC(=O)N(C)[C@H]3C/C=C\CCN(C3=O)[C@@H](Cc3ccc(C)cc3)C(=O)N(C)CC(=O)N[C@@H](CCc3ccc(C(F)(F)F)c(OC)c3)C(=O)N2C1` [PP2392] was tested, and the “NRAS/KRAS (ratio of KD value with respect to NRAS to KD value with respect to KRAS)” value ([1]; SPR) was “A (a compound having 10 or more and less than 20 is denoted as A)” and the “HRAS/KRAS (ratio of KD value with respect to HRAS to KD value with respect to KRAS)” value ([2]; SPR) was “A (a compound having 10 or more and less than 20 is denoted as A)”.

With `CCCOC[C@H]1C(=O)N[C@@H]([C@@H](C)CC)C(=O)N2CCC[C@H]2C(=O)N(C)[C@H]2C/C=C\CCN(C2=O)[C@@H](CC2CCC(F)(F)CC2)C(=O)N(C)CC(=O)N[C@@H](CCc2ccc(C(F)(F)F)c(OC)c2)C(=O)N2C[C@@H](C)C[C@H]2C(=O)N(C)C2(CCC2)C(=O)N(C)[C@@H](C2CCCC2)C(=O)N(C)[C@H](C(=O)N(C)C)CC(=O)N1C` [PP2381] the “NRAS/KRAS (ratio of KD value with respect to NRAS to KD value with respect to KRAS)” value ([1]; SPR) was “A (a compound having 10 or more and less than 20 is denoted as A)” and the “HRAS/KRAS (ratio of KD value with respect to HRAS to KD value with respect to KRAS)” value ([2]; SPR) was “A (a compound having 10 or more and less than 20 is denoted as A)”.
